Measurements reported in PubChem BioAssay AID1259407 (Chemical Carcinogenesis Research Information System (CCRIS), 2018).
Active and inactive are the calls of the source. The rule behind the calls is not given here.

Tested on: CCRIS mutagenicity, Ames/micronucleus/aberration tests
Assay: CCRIS mutagenicity studies
[1] = Test System: AMES SALMONELLA TYPHIMURIUM, Strain/Indicator: TA98, Metabolic Activation: NONE, Method: PREINCUBATION
[2] = Test System: AMES SALMONELLA TYPHIMURIUM, Strain/Indicator: TA100, Metabolic Activation: NONE, Method: PREINCUBATION

## O=[N+]([O-])c1ccc(Nc2ncnc3nc[nH]c23)cc1
Test System: AMES SALMONELLA TYPHIMURIUM, Strain/Indicator: TA98(1,8-DNP), Metabolic Activation: NONE, Method: PREINCUBATION
  mutagenic call: inactive; negative
Test System: AMES SALMONELLA TYPHIMURIUM, Strain/Indicator: TA98(1,8-DNP), Metabolic Activation: RAT, LIVER, S-9, PCB, Method: PREINCUBATION
  mutagenic call: inactive; negative
Test System: AMES SALMONELLA TYPHIMURIUM, Strain/Indicator: TA98(NR), Metabolic Activation: NONE, Method: PREINCUBATION
  mutagenic call: inactive; negative
Test System: AMES SALMONELLA TYPHIMURIUM, Strain/Indicator: TA98(NR), Metabolic Activation: RAT, LIVER, S-9, PCB, Method: PREINCUBATION
  mutagenic call: inactive; negative
[1]
  mutagenic call: inactive; negative
Test System: AMES SALMONELLA TYPHIMURIUM, Strain/Indicator: TA98, Metabolic Activation: RAT, LIVER, S-9, PCB, Method: PREINCUBATION
  mutagenic call: inactive; negative
Test System: AMES SALMONELLA TYPHIMURIUM, Strain/Indicator: TA100(1,8-DNP), Metabolic Activation: NONE, Method: PREINCUBATION
  mutagenic call: inactive; negative
Test System: AMES SALMONELLA TYPHIMURIUM, Strain/Indicator: TA100(1,8-DNP), Metabolic Activation: RAT, LIVER, S-9, PCB, Method: PREINCUBATION
  mutagenic call: inactive; negative
Test System: AMES SALMONELLA TYPHIMURIUM, Strain/Indicator: TA100(NR), Metabolic Activation: NONE, Method: PREINCUBATION
  mutagenic call: inactive; negative
Test System: AMES SALMONELLA TYPHIMURIUM, Strain/Indicator: TA100(NR), Metabolic Activation: RAT, LIVER, S-9, PCB, Method: PREINCUBATION
  mutagenic call: inactive; negative
[2]
  mutagenic call: inactive; negative
Test System: AMES SALMONELLA TYPHIMURIUM, Strain/Indicator: TA100, Metabolic Activation: RAT, LIVER, S-9, PCB, Method: PREINCUBATION
  mutagenic call: inactive; negative
Test System: AMES SALMONELLA TYPHIMURIUM, Strain/Indicator: YG1020, Metabolic Activation: NONE, Method: PREINCUBATION
  mutagenic call: inactive; negative
Test System: AMES SALMONELLA TYPHIMURIUM, Strain/Indicator: YG1020, Metabolic Activation: RAT, LIVER, S-9, PCB, Method: PREINCUBATION
  mutagenic call: inactive; negative
Test System: AMES SALMONELLA TYPHIMURIUM, Strain/Indicator: YG1021, Metabolic Activation: NONE, Method: PREINCUBATION
  mutagenic call: inactive; negative
Test System: AMES SALMONELLA TYPHIMURIUM, Strain/Indicator: YG1021, Metabolic Activation: RAT, LIVER, S-9, PCB, Method: PREINCUBATION
  mutagenic call: inactive; negative
Test System: AMES SALMONELLA TYPHIMURIUM, Strain/Indicator: YG1024, Metabolic Activation: NONE, Method: PREINCUBATION
  mutagenic call: inactive; negative
Test System: AMES SALMONELLA TYPHIMURIUM, Strain/Indicator: YG1024, Metabolic Activation: RAT, LIVER, S-9, PCB, Method: PREINCUBATION
  mutagenic call: inactive; negative
Test System: AMES SALMONELLA TYPHIMURIUM, Strain/Indicator: YG1025, Metabolic Activation: NONE, Method: PREINCUBATION
  mutagenic call: inactive; negative
Test System: AMES SALMONELLA TYPHIMURIUM, Strain/Indicator: YG1025, Metabolic Activation: RAT, LIVER, S-9, PCB, Method: PREINCUBATION
  mutagenic call: inactive; negative
Test System: AMES SALMONELLA TYPHIMURIUM, Strain/Indicator: YG1026, Metabolic Activation: NONE, Method: PREINCUBATION
  mutagenic call: inactive; negative
Test System: AMES SALMONELLA TYPHIMURIUM, Strain/Indicator: YG1026, Metabolic Activation: RAT, LIVER, S-9, PCB, Method: PREINCUBATION
  mutagenic call: inactive; negative
Test System: AMES SALMONELLA TYPHIMURIUM, Strain/Indicator: YG1029, Metabolic Activation: NONE, Method: PREINCUBATION
  mutagenic call: inactive; negative
Test System: AMES SALMONELLA TYPHIMURIUM, Strain/Indicator: YG1029, Metabolic Activation: RAT, LIVER, S-9, PCB, Method: PREINCUBATION
  mutagenic call: inactive; negative

## c1ccc2cc3c(ccc4ccccc43)cc2c1
Test System: AMES SALMONELLA TYPHIMURIUM, Strain/Indicator: TA98, Metabolic Activation: NONE, Method: STANDARD PLATE
  mutagenic call: inactive; negative
Test System: AMES SALMONELLA TYPHIMURIUM, Strain/Indicator: TA98, Method: STANDARD PLATE
  mutagenic call: active; positive
Test System: AMES SALMONELLA TYPHIMURIUM, Strain/Indicator: TA100, Metabolic Activation: NONE, Method: STANDARD PLATE
  mutagenic call: inactive; negative
Test System: AMES SALMONELLA TYPHIMURIUM, Strain/Indicator: TA100, Metabolic Activation: RAT, INTACT HEPATOCYTES, AROCLOR 1254, Method: PREINCUBATION
  mutagenic call: active; positive
Test System: AMES SALMONELLA TYPHIMURIUM, Strain/Indicator: TA100, Metabolic Activation: RAT, LIVER, S-9, 3-METHYLCHOLANTHRENE, Method: STANDARD PLATE
  mutagenic call: active; positive
Test System: AMES SALMONELLA TYPHIMURIUM, Strain/Indicator: TA100, Metabolic Activation: RAT, LIVER, S-9, AROCLOR 1254, Method: STANDARD PLATE
  mutagenic call: active; positive
Test System: AMES SALMONELLA TYPHIMURIUM, Strain/Indicator: TA100, Metabolic Activation: RAT, LIVER, S-9, PHENOBARBITAL, Method: STANDARD PLATE
  mutagenic call: inactive; negative
Test System: AMES SALMONELLA TYPHIMURIUM, Strain/Indicator: TA100, Metabolic Activation: RAT, NADPH-FORTIFIED HOMOGENIZED HEPATOCYTES, AROCLOR 1254, Method: PREINCUBATION
  mutagenic call: active; positive
Test System: AMES SALMONELLA TYPHIMURIUM, Strain/Indicator: TA100, Metabolic Activation: RAT, SONICATED HEPATOCYTES, AROCLOR 1254, Method: PREINCUBATION
  mutagenic call: active; positive
Test System: AMES SALMONELLA TYPHIMURIUM, Strain/Indicator: TA100, Method: STANDARD PLATE
  mutagenic call: active; positive
Test System: AMES SALMONELLA TYPHIMURIUM, Strain/Indicator: TA1537, Metabolic Activation: MOUSE, LIVER, S-9, Method: STANDARD PLATE
  mutagenic call: active; positive
Test System: AMES SALMONELLA TYPHIMURIUM, Strain/Indicator: TA1538, Metabolic Activation: NONE, Method: STANDARD PLATE
  mutagenic call: inactive; negative
Test System: AMES SALMONELLA TYPHIMURIUM, Strain/Indicator: TA1538, Metabolic Activation: RAT, LIVER, S-9, AROCLOR 1254, Method: STANDARD PLATE
  mutagenic call: inactive; negative
Test System: AMES SALMONELLA TYPHIMURIUM, Strain/Indicator: TA1538, Metabolic Activation: RAT, LIVER, S-9, PHENOBARBITAL, Method: STANDARD PLATE
  mutagenic call: active; positive
Test System: CHINESE HAMSTER V-79, Strain/Indicator: V-79/6-THIOGUANINE, Metabolic Activation: RAT, LIVER, S-9, PHENOBARBITAL, Method: STANDARD PLATE
  mutagenic call: active; positive
Test System: CHINESE HAMSTER V-79, Strain/Indicator: V-79/OUABAIN, Metabolic Activation: CELL-MEDIATED, Method: STANDARD PLATE
  mutagenic call: active; positive
Test System: E. COLI, Strain/Indicator: WP2 UVRA, Metabolic Activation: HAMSTER, LIVER, S-9, AROCLOR 1254, Method: STANDARD PLATE
  mutagenic call: inactive; negative
Test System: E. COLI, Strain/Indicator: WP2 UVRA, Metabolic Activation: HAMSTER, LIVER, S-9, Method: STANDARD PLATE
  mutagenic call: inactive; negative
Test System: E. COLI, Strain/Indicator: WP2 UVRA, Metabolic Activation: MOUSE, LIVER, S-9, AROCLOR 1254, Method: STANDARD PLATE
  mutagenic call: inactive; negative
Test System: E. COLI, Strain/Indicator: WP2 UVRA, Metabolic Activation: MOUSE, LIVER, S-9, Method: STANDARD PLATE
  mutagenic call: inactive; negative
Test System: E. COLI, Strain/Indicator: WP2 UVRA, Metabolic Activation: NONE, Method: STANDARD PLATE
  mutagenic call: inactive; negative
Test System: E. COLI, Strain/Indicator: WP2 UVRA, Metabolic Activation: RAT, LIVER, S-9, AROCLOR 1254, Method: STANDARD PLATE
  mutagenic call: inactive; negative
Test System: E. COLI, Strain/Indicator: WP2 UVRA, Metabolic Activation: RAT, LIVER, S-9, Method: STANDARD PLATE
  mutagenic call: inactive; negative
Test System: MOUSE LYMPHOMA, Strain/Indicator: L5178Y (TK+/TK-), Metabolic Activation: NONE, Method: SUSPENSION/PLATE
  mutagenic call: active; positive
Test System: MOUSE LYMPHOMA, Strain/Indicator: L5178Y (TK+/TK-), Metabolic Activation: RAT, LIVER, S-9, AROCLOR 1254, Method: SUSPENSION/PLATE
  mutagenic call: active; positive
Test System: MOUSE LYMPHOMA, Strain/Indicator: L5178Y (TK+/TK-), Metabolic Activation: RAT, LIVER, S-9, Method: SUSPENSION/PLATE
  mutagenic call: active; positive

## O=Nc1cc2c3ccccc3ccc2c2ccccc12
[1]
  mutagenic call: active; positive
Test System: AMES SALMONELLA TYPHIMURIUM, Strain/Indicator: TA98, Metabolic Activation: RAT, LIVER, S-9, AROCLOR 1254, Method: PREINCUBATION
  mutagenic call: active; positive
[2]
  mutagenic call: active; positive
Test System: AMES SALMONELLA TYPHIMURIUM, Strain/Indicator: TA100, Metabolic Activation: RAT, LIVER, S-9, AROCLOR 1254, Method: PREINCUBATION
  mutagenic call: active; positive
Test System: CHINESE HAMSTER OVARY, Strain/Indicator: CHO-K1-BH4 (HGPRT)/6-THIOGUANINE, Metabolic Activation: NONE, Method: STANDARD PLATE
  mutagenic call: active; positive
Test System: CHINESE HAMSTER OVARY, Strain/Indicator: CHO-UV5 (HGPRT)/6-THIOGUANINE, Metabolic Activation: NONE, Method: STANDARD PLATE
  mutagenic call: active; positive
